Data reported in patent US20040005537A1, “Method of identifying toxic agents using differential gene expression” (priority 2000, published 2004).

System: rat heart tissue
Assay: GENECALLING differential gene expression analysis after dosing of serotonin modulating agents
Assay type: in vivo, Sprague Dawley rats
Experimental: Control animals received sterile water or canola oil. The animals were sacrificed 24 hours following the last dose. Liver tissue was dissected from the animals, and total RNA was recovered from the dissected tissue. cDNA was prepared and the resulting samples were processed through using GENECALLING™ differential expression analysis as described in U.S. Pat. No. 5,871,697 and in Shimkets et al., Nature Biotechnology 17:798-803 (1999). The contents of these patents and publications are incorporated herein by reference in their entirety.
Thousands of gene fragments were initially found to be differentially expressed in rat heart tissue in response to serotonin modulating agents in. Genes fragments whose expression levels were modulated greater than ±1.5-fold were selected for further analysis.
Column 6 of Table 1, entitled “Function”, lists the type of classification assigned for the protein, based on its function. The 210 single nucleic acid sequences identified herein, are referred to herein as CARDIOTOX 1-210.

Structure (SMILES): CNS(=O)(=O)Cc1ccc2[nH]cc(CCN(C)C)c2c1 [sumatriptan]
- Effects on Transcription Level: Novel gene fragment, 524 bp, 86% SI to mouse F-box protein FBX6b [AF176526] (CARDIOTOX 1): +1.5 fold
- Effects on Transcription Level: Novel gene fragment, 306 bp, 91% SI to mouse low density lipoprotein receptor related protein 4 [AB013874] (CARDIOTOX 2): −1.6 fold
- Effects on Transcription Level: Novel gene fragment, 540 bp, 97% SI to mouse skeletal muscle alpha-actin [X03766] (CARDIOTOX 3): +2.4 fold
- Effects on Transcription Level: Novel gene fragment, 80 bp (CARDIOTOX 4): −1.4 fold
- Effects on Transcription Level: Novel gene fragment, 957 bp, 99% SI to kidney injury associated moleculer HW036 [V80591] (CARDIOTOX 5): −1.6 fold
- Effects on Transcription Level: Novel gene fragment, 282 bp, 85% SI to human KIAA1515 protein [AB040948] (CARDIOTOX 6): −1.7 fold
- Effects on Transcription Level: Novel gene fragment, 405 bp, 88% SI to human 2-oxoglutarate dehydrogenase [D10523] (CARDIOTOX 7): +1.5 fold
- Effects on Transcription Level: UCP2 (CARDIOTOX 8, GenBank AB010743): −1.6 fold
- Effects on Transcription Level: Plasma membrane Ca2 + ATPase-isoform 1 (CARDIOTOX 9, GenBank J03753): −1.6 fold
- Effects on Transcription Level: Novel gene fragment, 242 bp, 97% SI to mouse HSP86 heat-shock protein [X16857] (CARDIOTOX 10): +1.4 fold
- Effects on Transcription Level: Novel gene fragment, 280 bp, 65% SI to human TRF1-interacting, ankyrin-related ADP-ribose polymerase [AF082556] (CARDIOTOX 11): +1.4 fold
- Effects on Transcription Level: Novel gene fragment, 348 bp, 88% SI to mouse Sec61 protein complex gamma subunit [U11027] (CARDIOTOX 12): +1.3 fold
- Effects on Transcription Level: Novel gene fragment 553 bp, 93% SI to mouse Sid329 [AB024984] (CARDIOTOX 13): +1.4 fold
- Effects on Transcription Level: Kruppel-like transcription factor (CARDIOTOX 14, GenBank AB020759): +1.3 fold
- Effects on Transcription Level: Ribosomal protein L3 (CARDIOTOX 15, GenBank X62166): +1.4 fold
- Effects on Transcription Level: Glucose-regulated protein (GRP) 75 (CARDIOTOX 16, GenBank S78556): +1.4 fold
- Effects on Transcription Level: Immunoglobulin heavy chain binding protein (BiP) (CARDIOTOX 17, GenBank M14050): +1.4 fold
- Effects on Transcription Level: Membrane-spannining proteoglycan NG2 (CARDIOTOX 18, GenBank X56541): −1.5 fold
- Effects on Transcription Level: Novel gene fragment, 1294 bp, 96% SI to mouse Sui 1 (elF) homolog [AF129888] (CARDIOTOX 19): +1.6 fold
- Effects on Transcription Level: Novel gene fragment, 723 bp, 85% SI to human translation initiation factor elF3 p40 subunit [U54559] (CARDIOTOX 20): +1.6 fold
- Effects on Transcription Level: Novel gene fragment, 1324 bp, 76% SI to human flavoprotein subunit of complex II [D30648] (CARDIOTOX 21): +1.5 fold
- Effects on Transcription Level: Novel gene fragment, 852 bp, 81% SI to human vacuolar proton-ATPase subunit M9.2 [Y15286] (CARDIOTOX 22): +1.5 fold
- Effects on Transcription Level: Novel gene fragment, 178 bp, 91% SI to mouse myosin light chain-2 isoform MLC-2a [S70785] (CARDIOTOX 23): +1.4 fold
- Effects on Transcription Level: Novel gene fragment, 167 bp, 90% SI to mouse Rab20 [X80332] (CARDIOTOX 24): +1.9 fold
- Effects on Transcription Level: Novel gene fragment, 1070 bp, 80% SI to human muscle-specific protein [AF249873] (CARDIOTOX 25): +1.5 fold
- Effects on Transcription Level: Novel gene fragment, 1143 bp, 82% SI to human sarcoma amplified sequence (SAS) [U01160] (CARDIOTOX 26): +1.7 fold
- Effects on Transcription Level: Novel gene fragment, 74 bp,75% SI to human secreted protein [X30160] (from patent database)/[X97578] (from patent database)/potential cytokine) (CARDIOTOX 27): +1.5 fold
- Effects on Transcription Level: Novel gene fragment, 408 bp, 90% SI to human CGI-07 protein [AF132941] (CARDIOTOX 28): +1.6 fold
- Effects on Transcription Level: Novel gene fragment, 618 bp, 95% SI to rat progression related cDNA, ZNPE-120 3′ end partial sequence [patent database X90805] (CARDIOTOX 29): +1.5 fold
- Effects on Transcription Level: Novel gene fragment, 717 bp (CARDIOTOX 30): +1.5 fold
- Effects on Transcription Level: Novel gene fragment, 546 bp (CARDIOTOX 31): +1.8 fold
- Effects on Transcription Level: Novel gene fragment, 920 bp, 91% SI to human HSPC061 [AF161546] (CARDIOTOX 32): +1.5 fold
- Effects on Transcription Level: Novel gene fragment, 203 bp, 92% SI to rabbit sarcoplasmic reticulum glycoprotein [J04480] (CARDIOTOX 33): −1.7 fold
- Effects on Transcription Level: Novel gene fragment, 178 bp, 68% SI to mouse IgG receptor (beta-Fc-gamma-RII)[M63159] (CARDIOTOX 34): +1.4 fold
- Effects on Transcription Level: Ribosomal protein L6 (CARDIOTOX 35, GenBank X87107): +1.6 fold
- Effects on Transcription Level: CAP2 protein (adenylyl cyclase-associated protein 2) (CARDIOTOX 36, GenBank U31935): +2.0 fold
- Effects on Transcription Level: Alpha-platelet-derived growth factor receptor (CARDIOTOX 37, GenBank M63837): +1.6 fold
- Effects on Transcription Level: Rab GD1 alpha protein (CARDIOTOX 38, GenBank X74402): −1.6 fold
- Effects on Transcription Level: PKC-zeta-interacting protein (CARDIOTOX 39, GenBank Y08355): +1.6 fold
- Effects on Transcription Level: ERK or MAP kinase (CARDIOTOX 40, GenBank X65198): +1.5 fold
- Effects on Transcription Level: Peroxisomal multifunctional enzyme type II (CARDIOTOX 41, GenBank U37486): +1.5 fold
- Effects on Transcription Level: HBP23 (heme-binding protein 23 kDa) (CARDIOTOX 42, GenBank D30035): +1.7 fold
- Effects on Transcription Level: Caveolae-associated protein (CARDIOTOX 43, GenBank U90725): +3.1 fold
- Effects on Transcription Level: Prenylated rab acceptor 1 (PRA1) (CARDIOTOX 44, GenBank AF025506): +1.5 fold
- Effects on Transcription Level: Novel gene fragment, 337 bp, 88% SI to rabbit cardiac ryanodine receptor (RyR-2)[U50465] (CARDIOTOX 45): −1.5 fold
- Effects on Transcription Level: Novel gene fragment, 81 bp, 85% SI to human titin [X90568] (CARDIOTOX 46): −2.2 fold
- Effects on Transcription Level: Novel gene fragment, 428 bp, 86% SI to human titin [X90568] (CARDIOTOX 47): −2.0 fold
- Effects on Transcription Level: Novel gene fragment, 374 bp, 88% SI to human titin [X90568] (CARDIOTOX 48): −2.3 fold
- Effects on Transcription Level: Novel gene fragment, 428 bp, 85% SI to human titin [90568] (CARDIOTOX 49): −2.2 fold
- Effects on Transcription Level: Novel gene fragment, 1216 bp, 93% SI to mouse mircotubule-associated protein (MAP) 1B protein [AF115776] (CARDIOTOX 50): 1 fold
- Effects on Transcription Level: Novel gene fragment, 1115 bp, 83% SI to human KIAA0549 protein [AB011121] (CARDIOTOX 51): −2.1 fold
- Effects on Transcription Level: Novel gene fragment, 153 bp (CARDIOTOX 52): −1.7 fold
- Effects on Transcription Level: Novel gene fragment, 89 bp, 93% SI to human putative glialblastoma cell differentiation-related protein (GBDR1) [AF068195] (CARDIOTOX 53): +1.6 fold
- Effects on Transcription Level: Rho-associated kinase beta (CARDIOTOX 54, GenBank U61266): −1.10 fold
- Effects on Transcription Level: Adenylate kinase 3 (CARDIOTOX 55, GenBank D13062): +1.5 fold
- Effects on Transcription Level: Amyloid beta-peptide binding protein (CARDIOTOX 56, GenBank AF049878): +1.5 fold
- Effects on Transcription Level: Mitochondrial adenine nuleotide translocator (CARDIOTOX 57, GenBank D12771): +1.5 fold
- Effects on Transcription Level: Novel gene fragment, 710 bp, 94% SI to mouse chromatin structural protein homolog Supt5 hp (Supt5 h)[U88539] (CARDIOTOX 58): +3.0 fold
- Effects on Transcription Level: Novel gene fragment, 186 bp, 66% SI to human N-acetylglucosaminyltransferase 1 (GlcNAc-TI)[M55621] (CARDIOTOX 60): −1.8 fold
- Effects on Transcription Level: Novel gene fragment, 238 bp, 95% SI to mouse MAP kinase-activated protein kinase 2 [X76850] (CARDIOTOX 61): −2.7 fold
- Effects on Transcription Level: Novel gene fragment, 173 bp, 70% SI to G protein-coupled receptor kinase GRK4 [X97568] (CARDIOTOX 62): −6.11 fold
- Effects on Transcription Level: Novel gene fragment, 133 bp, 77% SI to human apoptosis related protein hSARP3 [patent database: V19114] (CARDIOTOX 63): −3.2 fold
- Effects on Transcription Level: Novel gene fragment, 477 bp, 98% SI to peroxisomal phytanoyl-CoA hydroxylase (PHYH) [AF121345] (CARDIOTOX 64): +5.1 fold
- Effects on Transcription Level: Novel gene fragment, 413 bp, 95% SI to mouse dihydrolipoamide dehydrogenase (Dld) [U73445] (CARDIOTOX 65): +1.10 fold
- Effects on Transcription Level: Novel gene fragment, 726 bp, 76% SI to human succinate dehydrogenase flavoprotein subunit (SDH) [L21936] (CARDIOTOX 66): −4.1 fold
- Effects on Transcription Level: Novel gene fragment, 440 bp, 92% SI to mouse cytochrome c oxidase Vllc [X52940] (CARDIOTOX 67): +3.7 fold
- Effects on Transcription Level: Novel gene fragment, 276 bp, 80% SI to human titin [X90568] (CARDIOTOX 68): −11.10 fold
- Effects on Transcription Level: Novel gene fragment, 149 bp, 70% SI to human titin [X90568] (CARDIOTOX 69): −5.6 fold
- Effects on Transcription Level: Novel gene fragment, 467 bp, 94% SI to mouse gelsolin [J04953] (CARDIOTOX 70): −3.2 fold
- Effects on Transcription Level: Novel gene fragment, 535 bp, 90% SI to mouse slow/cardiac troponin C [M29793] (CARDIOTOX 71): −2.1 fold
